Measurements taken from patent publication US20260325533A1, “CDK INHIBITOR COMPOUNDS” (ALEKSIA THERAPEUTICS, INC., priority 2023, published 2026).
Where two headings read alike, the source gives them in different places.

Experiments:
Format in all cases: biochemical
CDK2/CCNE1 = CDK2/CCNE1 (Homo sapiens, UniProt P24941); test: CDK2 homogeneous time-resolved fluorescence (HTRF) kinase assay; conditions: CDK2/CCNE
Outline: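 An HTRF format measures CDK2/CCNE1 (3 nM) phosphorylating a 4E-BP1 Thr37/46 peptide at high (1 mM) ATP. Reactions run one hour at 23 °C, then EDTA-quenched and probed with Eu-labelled phospho-specific antibody.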

CDK1/CCNB1 = CDK1/CCNB1 (Homo sapiens, UniProt P06493); test: CDK1 homogeneous time-resolved fluorescence (HTRF) kinase assay; conditions: CDK1/CCNB
Sequence of CDK1/CCNB1 (P06493 whole entry): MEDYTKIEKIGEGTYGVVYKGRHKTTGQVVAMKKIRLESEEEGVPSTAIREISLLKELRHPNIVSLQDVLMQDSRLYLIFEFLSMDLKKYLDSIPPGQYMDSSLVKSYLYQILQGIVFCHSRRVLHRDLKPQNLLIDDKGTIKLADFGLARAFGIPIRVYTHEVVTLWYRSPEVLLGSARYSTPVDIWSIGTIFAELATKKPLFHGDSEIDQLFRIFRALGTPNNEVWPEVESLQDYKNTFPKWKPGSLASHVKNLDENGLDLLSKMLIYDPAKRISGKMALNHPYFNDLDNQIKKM
Sequence of CDK1/CCNB1 (P14635 whole entry partner): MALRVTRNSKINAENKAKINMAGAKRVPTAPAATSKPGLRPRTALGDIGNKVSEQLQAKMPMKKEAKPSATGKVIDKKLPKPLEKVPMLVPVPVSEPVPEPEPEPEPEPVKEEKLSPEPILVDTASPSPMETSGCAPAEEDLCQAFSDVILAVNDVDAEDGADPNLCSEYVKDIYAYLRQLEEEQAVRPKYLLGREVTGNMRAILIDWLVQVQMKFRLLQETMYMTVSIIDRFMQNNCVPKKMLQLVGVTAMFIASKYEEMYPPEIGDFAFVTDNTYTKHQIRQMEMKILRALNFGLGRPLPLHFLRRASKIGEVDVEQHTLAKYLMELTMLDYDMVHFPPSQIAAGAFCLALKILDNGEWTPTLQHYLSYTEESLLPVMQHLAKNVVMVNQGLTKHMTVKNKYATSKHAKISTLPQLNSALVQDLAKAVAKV
Outline: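 CDK1/CCNB1 0.5 nM + cpd, 20 min 23 °C; add 1 mM ATP, 50 nM ULight-4E-BP1 peptide, 60 min 23 °C; stop 10 mM EDTA; 2 nM Eu-Ab, 60 min; HTRF 665 nm. 11-pt half-log, top 10 μM typical; IC50.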

CDK4/CCND3 = CDK4/CCND3 (Homo sapiens, UniProt P11802); test: CDK4 homogeneous time-resolved fluorescence (HTRF) kinase assay; conditions: CDK4/CCND
Sequence of CDK4/CCND3 (P11802 whole entry): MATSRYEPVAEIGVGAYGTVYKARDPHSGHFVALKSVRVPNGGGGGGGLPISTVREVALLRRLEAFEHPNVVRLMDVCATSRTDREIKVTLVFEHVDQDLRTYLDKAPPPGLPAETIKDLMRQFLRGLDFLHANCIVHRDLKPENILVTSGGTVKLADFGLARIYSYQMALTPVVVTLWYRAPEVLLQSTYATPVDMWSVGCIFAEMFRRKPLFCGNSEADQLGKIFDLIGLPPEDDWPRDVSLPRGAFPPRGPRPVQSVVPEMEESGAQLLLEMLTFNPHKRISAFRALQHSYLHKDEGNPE
Sequence of CDK4/CCND3 (P30281 whole entry partner): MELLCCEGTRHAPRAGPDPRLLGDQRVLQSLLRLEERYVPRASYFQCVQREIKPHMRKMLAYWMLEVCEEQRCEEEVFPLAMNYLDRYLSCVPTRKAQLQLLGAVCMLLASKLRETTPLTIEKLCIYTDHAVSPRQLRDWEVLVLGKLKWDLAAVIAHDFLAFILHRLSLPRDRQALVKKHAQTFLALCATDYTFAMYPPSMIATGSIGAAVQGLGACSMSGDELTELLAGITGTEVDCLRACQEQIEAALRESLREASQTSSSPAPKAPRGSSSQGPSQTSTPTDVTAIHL
Outline: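 IC50 values were derived from 11-point half-log dilutions, usually starting at 10 μM. Compound was first held for 20 min at 23 °C with 1.5 nM CDK4/CCND3. 1 mM ATP and 50 nM ULight-eIF4E-BP1 (Thr37/46) substrate were then added for 60 min, and the TR-FRET 665 nm signal was measured after EDTA stop and Eu-anti-phospho-4E-BP1 detection.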

CDK6/CCND1 = CDK6/CCND1 (Homo sapiens, UniProt Q00534); test: CDK6 homogeneous time-resolved fluorescence (HTRF) kinase assay; conditions: CDK6/CCND
Sequence of CDK6/CCND1 (Q00534 whole entry): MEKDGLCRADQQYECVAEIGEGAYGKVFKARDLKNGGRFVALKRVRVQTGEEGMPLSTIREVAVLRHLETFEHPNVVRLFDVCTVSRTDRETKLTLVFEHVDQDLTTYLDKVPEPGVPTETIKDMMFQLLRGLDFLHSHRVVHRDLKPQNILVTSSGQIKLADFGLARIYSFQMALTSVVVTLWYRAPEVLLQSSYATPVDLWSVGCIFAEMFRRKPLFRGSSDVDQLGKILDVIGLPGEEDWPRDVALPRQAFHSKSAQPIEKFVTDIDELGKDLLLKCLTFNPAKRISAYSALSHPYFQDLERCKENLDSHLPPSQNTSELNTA
Sequence of CDK6/CCND1 (P24385 whole entry partner): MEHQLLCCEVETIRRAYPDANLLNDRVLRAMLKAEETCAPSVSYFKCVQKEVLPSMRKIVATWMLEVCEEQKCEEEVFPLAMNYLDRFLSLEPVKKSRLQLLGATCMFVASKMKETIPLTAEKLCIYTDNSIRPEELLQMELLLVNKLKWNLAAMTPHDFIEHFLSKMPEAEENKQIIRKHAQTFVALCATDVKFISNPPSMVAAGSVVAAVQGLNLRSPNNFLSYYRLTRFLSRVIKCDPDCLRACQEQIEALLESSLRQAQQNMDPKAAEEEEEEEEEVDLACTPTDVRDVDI
Outline: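 Recombinant CDK6/CCND1 (1 nM final) was preincubated with compound for 20 min at 23 °C in HEPES buffer with MgCl2, EGTA, DTT and Tween 20. Kinase reaction then ran 60 min at 23 °C with 1 mM ATP and 50 nM ULight-4E-BP1 (Thr37/46) peptide, and was stopped with EDTA.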

[1] = <25 nM, read-out: CDK2/CCNE IC50 <25 nM
[2] = 25-250 nM marked x, read-out: CDK1/CCNB IC50 25-250 nM
[3] = 25-250 nM marked x, read-out: CDK4/CCND IC50 25-250 nM
[4] = >250 nM marked x, read-out: CDK6/CCND IC50 >250 nM
[5] = x = IC50 <25 nM, read-out: CDK2/CCNE IC50 (<25 nM)
[6] = x = IC50 25-250 nM, read-out: CDK1/CCNB IC50 (25-250 nM)
[7] = x = IC50 25-250 nM, read-out: CDK4/CCND IC50 (25-250 nM)
[8] = x = IC50 25-250 nM, read-out: CDK6/CCND IC50 (25-250 nM)
[9] = x = IC50 >250 nM, read-out: CDK4/CCND IC50 (>250 nM column)
[10] = x = IC50 >250 nM, read-out: CDK6/CCND IC50 (>250 nM column)
[11] = x = IC50 >250 nM, read-out: CDK1/CCNB IC50 (>250 nM column)
[12] = x = IC50 25-250 nM, read-out: CDK2/CCNE IC50 (25-250 nM)
[13] = <25 nM, read-out: CDK4/CCND IC50 <25 nM
[14] = <25 nM, read-out: CDK6/CCND IC50 <25 nM
[15] = 25-250 nM marked x, read-out: CDK2/CCNE IC50 25-250 nM
[16] = >250 nM marked x, read-out: CDK1/CCNB IC50 >250 nM

Row | SMILES | IC50 (CDK2/CCNE1; [5]) | IC50 (CDK1/CCNB1; [6]) | IC50 (CDK6/CCND1; [8]) | IC50 (CDK4/CCND3; [9]) | IC50 (CDK6/CCND1; [10]) | IC50 (CDK1/CCNB1; [11]) | also measured
1 | COCC1(COC)C(=O)Nc2cc(C#Cc3nccc4cnc(Nc5ccc(S(=N)(=O)C(C)C)cc5)cc34)ccc21 (single isomer, unassigned) [Example 321, 3,3-bis(methoxymethyl)-6-((7-((4-(propan-2-ylsulfonimidoyl)phenyl)amino)-2,6-naphthyridin-1-yl)ethynyl)indolin-2-one] | – | – | – | – | – | – | IC50 (CDK2/CCNE1; [1]): < 25 nM; IC50 (CDK1/CCNB1; [2]): 25 to 250 nM; IC50 (CDK4/CCND3; [3]): 25 to 250 nM; IC50 (CDK6/CCND1; [4]): > 250 nM
2 | CC(C)S(=N)(=O)c1ccc(Nc2cc3c(C#Cc4ccc5c(c4)NC(=O)C5(C)CO)nccc3cn2)cc1 (single isomer, unassigned) [Example 328, 3-(hydroxymethyl)-3-methyl-6-((7-((4-(propan-2-ylsulfonimidoyl)phenyl)amino)-2,6-naphthyridin-1-yl)ethynyl)indolin-2-one] | – | – | – | – | – | – | IC50 (CDK2/CCNE1; [1]): < 25 nM; IC50 (CDK1/CCNB1; [2]): 25 to 250 nM; IC50 (CDK4/CCND3; [3]): 25 to 250 nM; IC50 (CDK6/CCND1; [4]): > 250 nM
3 | CC1(O)C(=O)Nc2cc(C#Cc3nccc4cnc(Nc5ccc(S(C)(=O)=O)cc5)cc34)ccc21 (single isomer, unassigned) [Example 347, 3-hydroxy-3-methyl-6-((7-((4-(methylsulfonyl)phenyl)amino)-2,6-naphthyridin-1-yl)ethynyl)indolin-2-one] | < 25 nM | 25 to 250 nM | 25 to 250 nM | – | – | – | IC50 (CDK4/CCND3; [7]): 25 to 250 nM
4 | CC1(CO)C(=O)Nc2cc(C#Cc3nccc4cnc(Nc5ccc(S(C)(=O)=O)cc5)cc34)ccc21 (single isomer, unassigned) [Example 372, 3-(hydroxymethyl)-3-methyl-6-((7-((4-(methylsulfonyl)phenyl)amino)-2,6-naphthyridin-1-yl)ethynyl)indolin-2-one] | < 25 nM | 25 to 250 nM | 25 to 250 nM | – | – | – | IC50 (CDK4/CCND3; [7]): 25 to 250 nM
5 | CCC1(C)C(=O)Nc2cc(C#Cc3nccc4cnc(Nc5ccc(S(C)(=O)=O)cc5)cc34)ccc21 (single isomer, unassigned) [Example 388, 3-ethyl-3-methyl-6-((7-((4-(methylsulfonyl)phenyl)amino)-2,6-naphthyridin-1-yl)ethynyl)indolin-2-one] | < 25 nM | 25 to 250 nM | – | > 250 nM | > 250 nM | – | –
6 | CCS(=N)(=O)c1ccc(Nc2cc3c(C#Cc4ccc(=O)[nH]n4)nccc3cn2)cc1 (single isomer, unassigned) [Example 403, 6-((7-((4-(ethylsulfonimidoyl)phenyl)amino)-2,6-naphthyridin-1-yl)ethynyl)pyridazin-3(2H)-one] | < 25 nM | – | – | > 250 nM | > 250 nM | > 250 nM | –
7 | CS(=N)(=O)c1ccc(Nc2cc3c(C#Cc4ccc5oc(=O)[nH]c5c4)nccc3cn2)cc1 (single isomer, unassigned) [Example 483, 5-((7-((4-(S-methylsulfonimidoyl)phenyl)amino)-2,6-naphthyridin-1-yl)ethynyl)benzo[d]oxazol-2(3H)-one] | < 25 nM | 25 to 250 nM | 25 to 250 nM | – | – | – | IC50 (CDK4/CCND3; [7]): 25 to 250 nM
8 | CS(=N)(=O)c1ccc(Nc2cc3c(C#Cc4ccc(C#N)cc4)nccc3cn2)cc1 (single isomer, unassigned) [Example 511, 4-((7-((4-(S-methylsulfonimidoyl)phenyl)amino)-2,6-naphthyridin-1-yl)ethynyl)benzonitrile] | – | – | – | > 250 nM | > 250 nM | > 250 nM | IC50 (CDK2/CCNE1; [12]): 25 to 250 nM
9 | Cc1c(-c2nccc3cnc(Nc4ccc(S(C)(=N)=O)cc4)cc23)ccc2nn(C)cc12 (single isomer, unassigned) [Example 545, (4-((5-(2,4-dimethyl-2H-indazol-5-yl)-2,6-naphthyridin-3-yl)amino)phenyl)(imino)(methyl)-λ^6-sulfanone] | < 25 nM | – | 25 to 250 nM | > 250 nM | – | > 250 nM | –
10 | CC(C)(O)Cn1cc2ccc(C#Cc3nccc4cnc(Nc5ccc(S(C)(=O)=O)cc5)cc34)cc2n1 (single isomer, unassigned) [Example 577, 2-Methyl-1-(6-((7-((4-(methylsulfonyl)phenyl)amino)-2,6-naphthyridin-1-yl)ethynyl)-2H-indazol-2-yl)propan-2-ol] | – | – | – | > 250 nM | > 250 nM | > 250 nM | IC50 (CDK2/CCNE1; x = IC50 >250 nM, read-out: CDK2/CCNE IC50 (>250 nM column)): > 250 nM
11 | CS(=O)(=O)c1ccc(Nc2cc3c(-c4ccc5c(cnn5CC(O)(C(F)(F)F)C(F)(F)F)c4Cl)nccc3cn2)cc1 (single isomer, unassigned) [Example 587, 2-((4-chloro-5-(7-((4-(methylsulfonyl)phenyl)amino)-2,6-naphthyridin-1-yl)-1H-indazol-1-yl)methyl)-1,1,1,3,3,3-hexafluoropropan-2-ol] | < 25 nM | – | – | > 250 nM | > 250 nM | > 250 nM | –
12 | CC1NCCc2cc(-c3nccc4cnc(Nc5ccc(S(C)(=O)=O)cc5)cc34)ccc21 (single isomer, unassigned) [Example 599, 5-(1-methyl-1,2,3,4-tetrahydroisoquinolin-6-yl)-N-(4-(methylsulfonyl)phenyl)-2,6-naphthyridin-3-amine] | – | – | – | > 250 nM | > 250 nM | > 250 nM | IC50 (CDK2/CCNE1; [12]): 25 to 250 nM
13 | Cc1c(-c2nccc3cnc(Nc4ccc(S(C)(=O)=O)cc4)cc23)ccc2c1cnn2CC(C)O (single isomer, unassigned) [Example 614, 1-(4-methyl-5-(7-((4-(methylsulfonyl)phenyl)amino)-2,6-naphthyridin-1-yl)-1H-indazol-1-yl)propan-2-ol] | < 25 nM | – | 25 to 250 nM | – | – | > 250 nM | IC50 (CDK4/CCND3; [7]): 25 to 250 nM
14 | CC1(O)C=C(c2nccc3cnc(Nc4ccc(S(C)(=O)=O)cc4)cc23)CCC1 (single isomer, unassigned) [Example 625, 1-methyl-3-(7-((4-(methylsulfonyl)phenyl)amino)-2,6-naphthyridin-1-yl)cyclohex-2-en-1-ol] | < 25 nM | 25 to 250 nM | 25 to 250 nM | > 250 nM | – | – | –
15 | Cc1c(-c2nccc3cnc(Nc4ccc(S(C)(=O)=O)cc4)cc23)ccc2c1cnn2CC(C)(C)O (single isomer, unassigned) [Example 674, 2-methyl-1-(4-methyl-5-(7-((4-(methylsulfonyl)phenyl)amino)-2,6-naphthyridin-1-yl)-1H-indazol-1-yl)propan-2-ol] | < 25 nM | 25 to 250 nM | 25 to 250 nM | – | – | – | IC50 (CDK4/CCND3; [7]): 25 to 250 nM
16 | CS(=O)(=O)N1CCC(Nc2cc3c(N4CCCCC4)nccc3cn2)CC1 [Ex 27, N-(1-(methylsulfonyl)piperidin-4-yl)-5-(piperidin-1-yl)-2,6-naphthyridin-3-amine] | – | – | – | – | – | – | IC50 (CDK2/CCNE1; [1]): < 25 nM; IC50 (CDK1/CCNB1; [2]): 25 to 250 nM; IC50 (CDK4/CCND3; [13]): < 25 nM; IC50 (CDK6/CCND1; [14]): < 25 nM
17 | CN1CCC(C2CCN(c3nccc4cnc(NC5CCN(S(C)(=O)=O)CC5)cc34)CC2)CC1 [Ex 28, 5-(1'-methyl-[4,4'-bipiperidin]-1-yl)-N-(1-(methylsulfonyl)piperidin-4-yl)-2,6-naphthyridin-3-amine] | – | – | – | – | – | – | IC50 (CDK2/CCNE1; [15]): 25 to 250 nM; IC50 (CDK1/CCNB1; [16]): > 250 nM; IC50 (CDK4/CCND3; [3]): 25 to 250 nM; IC50 (CDK6/CCND1; [14]): < 25 nM
18 | CN1CCN(c2nccc3cnc(NC4CCN(S(C)(=O)=O)CC4)cc23)CC1 [Ex 29, 5-(4-methylpiperazin-1-yl)-N-(1-(methylsulfonyl)piperidin-4-yl)-2,6-naphthyridin-3-amine] | – | – | – | – | – | – | IC50 (CDK2/CCNE1; [15]): 25 to 250 nM; IC50 (CDK1/CCNB1; [16]): > 250 nM; IC50 (CDK4/CCND3; [13]): < 25 nM; IC50 (CDK6/CCND1; [14]): < 25 nM
